Tested on: subjects with advanced hematologic malignancies (R/R AML or MDS)
Assay: ascending multiple dose escalation clinical trial (safety and tolerability, oral administration)
Format: in vivo, human
Settings: ongoing study
Procedure: An ascending multiple dose escalation clinical trial of the compound shown below is conducted. It is primarily intended to evaluate the safety and tolerability of the compound shown below when administered orally to subjects with advanced hematologic malignancies, specifically relapsed or refractory acute myeloid leukemia (R/R AML) or myelodysplastic syndrome (MDS).
In this ongoing study, clinically significant signs and symptoms associated with blood cell differentiation have been reported for one of 21 subjects with acute myeloid leukemia treated with the compound shown above. This occurred approximately 7-14 days into the treatment with the compound shown above.

COC[C@H](NC(=O)c1ccn(S(C)(=O)=O)c1)C(=O)Nc1nc(-c2cccc(N3C[C@@H](C)O[C@@H](C)C3)n2)cs1
subjects with clinically significant signs and symptoms associated with blood cell differentiation (subjects with acute myeloid leukemia treated orally with the compound): one of 21 | time of occurrence of the clinically significant signs and symptoms associated with blood cell differentiation, into the treatment (the one affected subject with acute myeloid leukemia): 7 to 14 days

From patent publication US20250241931A1, “METHODS OF TREATING A SUBJECT HAVING CLINICALLY SIGNIFICANT SIGNS AND SYMPTOMS ASSOCIATED WITH BLOOD CELL DIFFERENTIATION” (FOGHORN THERAPEUTICS INC., priority 2022, published 2025)
